Measured values reported in US11339130B1 (Blade Therapeutics, Inc., priority 2016, dated 2022).
Read-outs that look alike come from different tables or passages of the source.

Tests used:
[1] = target: T1, Human Calpain 1/NS1 (Homo sapiens, UniProt P07384); experiment: Calpain inhibition continuous fluorescence (FRET) assay, Human Calpain 1/NS1; format: biochemical; conditions: read-out: Human Calpain 1/NS1 IC50
T1 sequence (P07384 1-714): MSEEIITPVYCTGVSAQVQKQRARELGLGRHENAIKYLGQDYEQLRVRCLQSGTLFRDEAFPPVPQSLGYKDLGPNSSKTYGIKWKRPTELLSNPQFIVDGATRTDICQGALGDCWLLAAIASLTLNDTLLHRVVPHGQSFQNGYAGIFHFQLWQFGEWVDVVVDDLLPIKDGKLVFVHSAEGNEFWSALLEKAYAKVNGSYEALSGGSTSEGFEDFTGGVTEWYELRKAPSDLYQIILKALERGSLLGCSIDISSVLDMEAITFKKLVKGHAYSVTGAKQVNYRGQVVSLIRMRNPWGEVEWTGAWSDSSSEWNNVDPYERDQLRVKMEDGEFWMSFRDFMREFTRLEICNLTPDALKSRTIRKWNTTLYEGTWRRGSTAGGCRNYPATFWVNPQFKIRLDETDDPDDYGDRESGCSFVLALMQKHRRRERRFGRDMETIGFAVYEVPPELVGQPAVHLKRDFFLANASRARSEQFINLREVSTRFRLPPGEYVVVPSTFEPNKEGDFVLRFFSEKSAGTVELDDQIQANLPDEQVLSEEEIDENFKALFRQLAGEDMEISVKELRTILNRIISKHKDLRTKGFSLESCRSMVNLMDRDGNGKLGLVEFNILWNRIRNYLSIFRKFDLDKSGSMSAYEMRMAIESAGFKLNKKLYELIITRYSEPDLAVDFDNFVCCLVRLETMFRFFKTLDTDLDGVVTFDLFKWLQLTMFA
T1 sequence (P04632 1-268 partner): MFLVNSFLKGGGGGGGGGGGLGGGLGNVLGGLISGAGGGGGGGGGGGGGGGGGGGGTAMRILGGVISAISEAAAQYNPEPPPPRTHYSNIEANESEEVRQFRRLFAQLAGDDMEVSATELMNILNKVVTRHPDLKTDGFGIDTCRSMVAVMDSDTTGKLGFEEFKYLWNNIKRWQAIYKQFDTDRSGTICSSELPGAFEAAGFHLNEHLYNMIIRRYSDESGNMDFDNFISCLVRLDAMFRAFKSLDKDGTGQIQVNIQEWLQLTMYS
Procedure, shortened: (§1)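 Buffer 50 mM Tris pH 7.5/100 mM NaCl/1 mM DTT; enzyme + cpd preinc 25C; start w/ FRET substrate + CaCl2; kinetic 490/520 nm, 10 min; slopes 1-5 min; 4-PL IC50.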

[2] = target: T2, Human Calpain 2/NS1 (Homo sapiens, UniProt P17655); experiment: Calpain inhibition continuous fluorescence (FRET) assay, Human Calpain 2/NS1; format: biochemical; conditions: read-out: Human Calpain 2/NS1 IC50
T2 sequence (P17655 1-700): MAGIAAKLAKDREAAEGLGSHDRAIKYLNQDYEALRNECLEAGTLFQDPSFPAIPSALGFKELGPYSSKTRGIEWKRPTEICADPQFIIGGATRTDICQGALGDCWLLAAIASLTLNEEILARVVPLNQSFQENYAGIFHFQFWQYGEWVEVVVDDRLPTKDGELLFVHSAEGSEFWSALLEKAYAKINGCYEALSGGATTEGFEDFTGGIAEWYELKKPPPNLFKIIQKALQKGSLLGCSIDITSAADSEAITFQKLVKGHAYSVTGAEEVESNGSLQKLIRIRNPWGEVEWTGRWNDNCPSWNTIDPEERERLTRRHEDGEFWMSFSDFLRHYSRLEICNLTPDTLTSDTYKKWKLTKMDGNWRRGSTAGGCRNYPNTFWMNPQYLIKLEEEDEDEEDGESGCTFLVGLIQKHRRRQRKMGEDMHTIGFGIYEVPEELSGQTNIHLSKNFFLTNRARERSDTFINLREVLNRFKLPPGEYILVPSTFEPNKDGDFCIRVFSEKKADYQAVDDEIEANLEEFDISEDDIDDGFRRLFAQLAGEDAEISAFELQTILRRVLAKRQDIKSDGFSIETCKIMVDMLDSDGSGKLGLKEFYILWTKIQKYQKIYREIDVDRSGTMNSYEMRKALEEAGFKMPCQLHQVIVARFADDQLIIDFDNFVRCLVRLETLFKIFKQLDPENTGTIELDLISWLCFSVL
T2 sequence (P04632 1-268 partner): T1 sequence (P04632 1-268 partner)
Procedure, shortened: as §1

[3] = target: T3, Human Calpain 9/NS1 (Homo sapiens, UniProt O14815); experiment: Calpain inhibition continuous fluorescence (FRET) assay, Human Calpain 9/NS1; format: biochemical; conditions: read-out: Human Calpain 9/NS1 IC50
T3 sequence (O14815 1-690): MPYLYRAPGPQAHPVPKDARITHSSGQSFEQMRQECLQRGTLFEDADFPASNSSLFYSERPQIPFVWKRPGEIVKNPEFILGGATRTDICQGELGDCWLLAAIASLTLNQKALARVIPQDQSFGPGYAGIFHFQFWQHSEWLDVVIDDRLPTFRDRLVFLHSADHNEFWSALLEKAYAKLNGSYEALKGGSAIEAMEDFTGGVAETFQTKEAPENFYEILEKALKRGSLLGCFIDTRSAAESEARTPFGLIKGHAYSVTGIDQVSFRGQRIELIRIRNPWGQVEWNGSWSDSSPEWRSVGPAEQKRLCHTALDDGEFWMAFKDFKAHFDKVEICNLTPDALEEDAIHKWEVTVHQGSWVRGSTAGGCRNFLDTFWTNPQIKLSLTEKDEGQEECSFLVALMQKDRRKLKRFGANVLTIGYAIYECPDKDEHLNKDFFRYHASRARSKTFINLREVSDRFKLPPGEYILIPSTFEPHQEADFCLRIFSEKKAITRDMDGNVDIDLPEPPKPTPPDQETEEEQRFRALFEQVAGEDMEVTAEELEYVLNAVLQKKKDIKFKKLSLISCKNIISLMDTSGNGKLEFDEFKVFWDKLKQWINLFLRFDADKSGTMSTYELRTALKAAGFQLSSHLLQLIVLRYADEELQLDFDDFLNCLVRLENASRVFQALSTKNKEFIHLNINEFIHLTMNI
T3 sequence (P04632 1-268 partner): T1 sequence (P04632 1-268 partner)
Procedure, shortened: as §1

[4] = tested on: Calpain activity in SH-SY5Y cells (SBDP-150); experiment: SH-SY5Y Spectrin western blot assay (SBDP-150 breakdown product, A23187-induced); format: cell-based; conditions: Homo sapiens, SH-SY5Y cells, read-out: SH-SY5Y Spectrin IC50
[5] = tested on: Calpain activity in SH-SY5Y cells; experiment: SH-SY5Y + AMC fluorescence assay (Suc-LLVY-AMC substrate); format: cell-based; conditions: read-out: SH-SY5Y + AMC IC50
[6] = Column D, A23187-induced SBDP-150

| Structure (SMILES) | IC50 ([1]; Column A) [µM] | IC50 ([2]; Column B) [µM] | IC50 ([3]; Column C) [µM] | IC50 [4, 6] [µM] | IC50 ([5]; Column E) [µM] | IC50 [1] [µM] | IC50 [2] [µM] | IC50 [3] [µM] | IC50 ([4]; A23187-induced SBDP-150, western blot) [µM] | IC50 [5] [µM] |
| --- | --- | --- | --- | --- | --- | --- | --- | --- | --- | --- |
| Cn1cnc(-c2ccccc2)c1C(=O)N[C@@H](Cc1ccccc1)C(=O)C(N)=O [Compound 268, (S)—N-(4-amino-3,4-dioxo-1-phenylbutan-2-yl)-1-methyl-4-phenyl-1H-imidazole-5-carboxamide] | < 3 | < 3 | < 3 | > 25 | > 25 |  |  |  |  |  |
| Cc1cc(C(=O)N[C@@H](Cc2ccccc2)C(=O)C(N)=O)n(-c2ccccc2)n1 [Compound 276, (S)—N-(4-amino-3,4-dioxo-1-phenylbutan-2-yl)-3-methyl-1-phenyl-1H-pyrazole-5-carboxamide] | < 3 | < 3 | < 3 | < 10 | < 10 |  |  |  |  |  |
| NC(=O)C(=O)[C@H](Cc1ccccc1)NC(=O)c1conc1-c1ccccc1F [Compound 277, (S)—N-(4-amino-3,4-dioxo-1-phenylbutan-2-yl)-3-(2-fluorophenyl)isoxazole-4-carboxamide] | < 3 | < 3 | < 3 | 10 to 25 | < 10 |  |  |  |  |  |
| NC(=O)C(=O)[C@H](Cc1ccccc1)NC(=O)c1c(-c2ccccc2)noc1C(F)(F)F [Compound 278, (S)—N-(4-amino-3,4-dioxo-1-phenylbutan-2-yl)-3-phenyl-5-(trifluoromethyl)isoxazole-4-carboxamide] | < 3 | < 3 | < 3 | < 10 | > 25 |  |  |  |  |  |
| Cc1cc(C(=O)N[C@H](C=O)Cc2ccccc2)n(-c2ccncn2)n1 [Compound 279, (S)-3-methyl-N-(1-oxo-3-phenylpropan-2-yl)-1-(pyrimidin-4-yl)-1H-pyrazole-5-carboxamide] | < 3 | < 3 | 3 to 10 | 10 to 25 | < 10 |  |  |  |  |  |
| Cn1nc(Cl)c(C(=O)NC(Cc2ccccc2)C(=O)C(N)=O)c1Cl (stereo not drawn) [Compound 282, N-(4-amino-3,4-dioxo-1-phenylbutan-2-yl)-3,5-dichloro-1-methyl-1H-pyrazole-4-carboxamide] | < 3 | < 3 | < 3 | 10 to 25 | < 10 |  |  |  |  |  |
| Cc1cc(C(=O)N[C@H](C=O)Cc2ccccc2)n(-c2cnccn2)n1 [Compound 285, (S)-3-methyl-N-(1-oxo-3-phenylpropan-2-yl)-1-(pyrazin-2-yl)-1H-pyrazole-5-carboxamide] | < 3 | < 3 | < 3 | > 25 | 10 to 25 |  |  |  |  |  |
| NC(=O)C(=O)C(Cc1ccccc1)NC(=O)c1cc(C(F)(F)F)sc1-c1ccccc1 (stereo not drawn) [Compound 286] | < 3 | < 3 | < 3 | < 10 | > 25 |  |  |  |  |  |
| NC(=O)C(=O)[C@H](Cc1ccccc1)NC(=O)c1conc1-c1ccccn1 [Compound 288, (S)—N-(4-amino-3,4-dioxo-1-phenylbutan-2-yl)-3-(pyridin-2-yl)isoxazole-4-carboxamide] | < 3 | < 3 | < 3 | > 25 | > 25 |  |  |  |  |  |
| NC(=O)C(=O)[C@H](Cc1ccccc1)NC(=O)c1conc1-c1ccc(F)cc1 [Compound 289, (S)—N-(4-amino-3,4-dioxo-1-phenylbutan-2-yl)-3-(4-fluorophenyl)isoxazole-4-carboxamide] | < 3 | < 3 | < 3 | 10 to 25 | > 25 |  |  |  |  |  |
| NC(=O)C(=O)[C@H](Cc1ccccc1)NC(=O)c1nonc1-c1ccccc1 [Compound 293, (S)—N-(4-amino-3,4-dioxo-1-phenylbutan-2-yl)-4-phenyl-1,2,5-oxadiazole-3-carboxamide] | < 3 | < 3 | < 3 | 10 to 25 | < 10 |  |  |  |  |  |
| Cc1cc(C(=O)N[C@@H](Cc2ccccc2)C(=O)C(N)=O)n(-c2nc3ccccc3n2C)n1 [Compound 294, (S)—N-(4-amino-3,4-dioxo-1-phenylbutan-2-yl)-3-methyl-1-(1-methyl-1H-benzo[d]imidazol-2-yl)-1H-pyrazole-5-carboxamide] | 3 to 10 | 3 to 10 | < 3 | 10 to 25 | > 25 |  |  |  |  |  |
| COc1ccc2nc(-n3nc(C(=O)N[C@@H](Cc4ccccc4)C(=O)C(N)=O)cc3C)sc2c1 [Compound 296, (S)—N-(4-amino-3,4-dioxo-1-phenylbutan-2-yl)-1-(6-methoxybenzo[d]thiazol-2-yl)-5-methyl-1H-pyrazole-3-carboxamide] | < 3 | < 3 | < 3 | < 10 | > 25 |  |  |  |  |  |
| NC(=O)C(=O)[C@H](Cc1ccccc1)NC(=O)c1ocnc1-c1ccccc1 [Compound 303, (S)—N-(4-amino-3,4-dioxo-1-phenylbutan-2-yl)-4-phenyloxazole-5-carboxamide] | < 3 | < 3 | < 3 | 10 to 25 | < 10 |  |  |  |  |  |
| NC(=O)C(=O)[C@H](Cc1ccccc1)NC(=O)c1cn(-c2ccccc2)nc1-c1ccccc1 [Compound 309, (S)—N-(4-amino-3,4-dioxo-1-phenylbutan-2-yl)-1,3-diphenyl-1H-pyrazole-4-carboxamide] |  |  |  |  |  | < 3 | < 3 | < 3 | 10 to 25 | < 10 |
